From US11076595B2, “1-(n,n-disubstituted carbamoyl) 4-(substituted sulfonyl)triazolin-5-one derivative, 4-(n,n-disubstituted carbamoyl) 1-(substituted sulfonyl)triazolin-5-one derivative, and herbicide containing said derivative as active ingredient” (HOKKO CHEMICAL INDUSTRY CO., LTD., priority 2017, dated 2021)

Experiments:
Type in all cases: in vivo
[1] = test system: Echinochloa crus-galli; test: Test Example 11: herbicidal effect test by soil treatment in paddy field; details: 120 g/10a active ingredient, 14 days after treatment
Outline: (§1)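 Seeds were sown 0-1 cm deep in puddled, fertilised paddy soil in Wagner pots and kept under about 3 cm of flooding in a greenhouse. Diluted emulsifiable concentrate was added dropwise right after sowing at 120 g a.i. per 10 are. Suppression (%) came from dry weight versus untreated pots after 14 days, two replicates.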

[2] = test system: Lindernia pyxidaria; test: as above; details: 120 g/10a active ingredient, 14 days after treatment
Outline: as §1

[3] = test system: Monochoria vaginalis; test: as above; details: 120 g/10a active ingredient, 14 days after treatment
Outline: as §1

[4] = test system: Scirpus juncoides; test: as above; details: 120 g/10a active ingredient, 14 days after treatment
Outline: as §1

[5] = test system: Echinochloa crus-galli; test: Test Example 12: herbicidal effect test by treatment during growing period in paddy field; details: 120 g/10a; treatment seven days after sowing in flooded paddy pot; assessed 14 days after treatment
Outline: (§2)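 Growing-period treatment in flooded paddy pots: the diluted emulsifiable concentrate was dripped in at 120 g a.i. per 10 are seven days after seeding. Inhibition is expressed as percent reduction in dry weight versus untreated pots, measured 14 days later in duplicate.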

[6] = test system: Lindernia pyxidaria; test: as above; details: 120 g/10a; treatment seven days after sowing in flooded paddy pot; assessed 14 days after treatment
Outline: as §2

[7] = test system: Monochoria vaginalis; test: as above; details: 120 g/10a; treatment seven days after sowing in flooded paddy pot; assessed 14 days after treatment
Outline: as §2

[8] = test system: Scirpus juncoides; test: as above; details: 120 g/10a; treatment seven days after sowing in flooded paddy pot; assessed 14 days after treatment
Outline: as §2

[9] = test system: Amaranthus viridis; test: Test Example 13: herbicidal effect test by soil treatment in upland field; details: 120 g/10a, 14 days after treatment
Outline: (§3)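 Pre-emergence soil treatment: alluvial soil pots (36 cm^2) sown with 20 seeds per weed species, sprayed one day later with water-diluted emulsifiable concentrate at 100 liter per 10 are, equal to 120 g active ingredient per 10 are. Two replicates; weed suppression (%) from dry weight versus untreated plots at 14 days.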

[10] = test system: Chenopodium album; test: as above; details: 120 g/10a, 14 days after treatment
Outline: as §3

[11] = test system: Echinochloa crus-galli; test: as above; details: 120 g/10a, 14 days after treatment
Outline: as §3

[12] = test system: crabgrass; test: as above; details: 120 g/10a, 14 days after treatment
Outline: as §3

[13] = test system: Chenopodium album; test: Test Example 14: herbicidal effect test by foliage treatment in upland field; details: 7 days after sowing, 120 g/10a, 14 days after treatment
Outline: (§4)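 Dry-weight read-out: suppression (%) = (1 − mean treated dry weight/mean untreated dry weight)×100, at 14 days post-spray, two replicate plots per concentration. Spray applied 7 days after sowing, 120 g a.i. per 10 are.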

[14] = test system: crabgrass; test: as above; details: 7 days after sowing, 120 g/10a, 14 days after treatment
Outline: as §4

[15] = test system: Amaranthus viridis; test: as above; details: 7 days after sowing, 120 g/10a, 14 days after treatment
Outline: as §4

[16] = test system: Echinochloa crus-galli; test: as above; details: 7 days after sowing, 120 g/10a, 14 days after treatment
Outline: as §4

SMILES	Weed suppression rate (%) Echinochloa crus-galli [1] [%]	Weed suppression rate (%) Lindemia pyxidaria [2] [%]	Weed suppression rate (%) Monochoria vaginalis [3] [%]	Weed suppression rate (%) Scirpus juncoides [4] [%]	Weed suppression rate (%) Echinochloa crus-galli [5] [%]	Weed suppression rate (%) Lindemia pyxidaria [6] [%]	Weed suppression rate (%) Monochoria vaginalis [7] [%]	Weed suppression rate (%) Scirpus juncoides [8] [%]	herbicidal effect, Amaranthus viridis [9] [%]	herbicidal effect, Chenopodium album [10] [%]	herbicidal effect, Echinochloa crus-galli [11] [%]	herbicidal effect, Crabgrass [12] [%]	herbicidal effect, Chenopodium album [13] [%]	herbicidal effect, Crabgrass [14] [%]	herbicidal effect, Amaranthus viridis [15] [%]	herbicidal effect, Echinochloa crus-galli [16] [%]
CCN(CC)C(=O)n1cnn(S(=O)(=O)c2ccc(F)cc2)c1=O [Compound 11-463]	90	50	50	40	90	80	80	80	80	100	90	90	0	60	40	70
CC(C)N(C(=O)n1cnn(S(=O)(=O)c2ccc(F)cc2)c1=O)c1ccc(F)cc1F [Compound 11-475]	100	90	90	90	90	90	90	90	80	90	100	100	40	90	40	70
CC(C)N(C(=O)n1cnn(S(=O)(=O)c2ccc(F)cc2)c1=O)c1ccc(F)cc1Cl [Compound 11-482]	90	80	80	90	90	80	80	90	90	80	80	90	80	90	90	80
CCN(CC)C(=O)n1cnn(S(=O)(=O)c2ccccc2Cl)c1=O [Compound 11-500]	90	50	50	50	80	60	60	60	0	0	80	80	50	40	40	40
CC(C)N(C(=O)n1cnn(S(=O)(=O)c2ccccc2Cl)c1=O)c1ccccc1 [Compound 11-501]	100	90	80	90	100	80	90	90	0	0	40	90	0	90	0	70
CC(C)N(C(=O)n1cnn(S(=O)(=O)c2ccccc2Cl)c1=O)c1ccc(F)cc1F [Compound 11-512]	100	100	100	100	100	100	100	90	70	50	100	100	50	90	40	80
Cc1ccccc1S(=O)(=O)n1ncn(C(=O)N(c2ccc(F)cc2F)C(C)C)c1=O [Compound 11-623]	100	100	90	90	100	100	100	90	0	0	100	90	40	60	40	80
Cc1ccc(S(=O)(=O)n2ncn(C(=O)N(c3ccccc3)C(C)C)c2=O)cc1 [Compound 11-626]	100	90	70	90	90	80	80	90	50	70	90	90	90	90	60	40
Cc1ccc(S(=O)(=O)n2ncn(C(=O)N(c3ccc(F)cc3F)C(C)C)c2=O)cc1 [Compound 11-637]	100	100	100	90	100	90	90	90	40	40	100	90	0	80	0	80
Cc1ccc(S(=O)(=O)n2ncn(C(=O)N(c3ccc(F)cc3Cl)C(C)C)c2=O)cc1 [Compound 11-644]	90	80	80	90	90	80	80	90	90	80	80	90	80	90	90	80
